The source of these data is patent publication US7153870B2, “Nicotinamide derivatives useful as PDE4 inhibitors” (Pfizer Inc., priority 2003, dated 2006).

The assay concerns TNFα release from human peripheral blood mononuclear cells. Briefly: Inhibition of LPS-stimulated TNFα release from human peripheral blood mononuclear cells (TNFα screen). It counts as cell-based. The conditions noted are these: LPS-stimulated human PBMC, 18 hours incubation, TNFα in supernatant by ELISA. Here is the method:
Venous blood is collected from healthy volunteers and the mononuclear cells purified by centrifugation through Histopaque (Ficoll) cushions. TNFα production from these cells is stimulated by addition of lipopolysaccharide. After 18 hours incubation in the presence of LPS, the cell supernatant is removed and the concentration of TNFα in the supernatant determined by ELISA. Addition of PDE4 inhibitors reduces the amount of TNFα produced. An IC50 is determined which is equal to the concentration of compound that gives 50% inhibition of TNFα production as compared to the LPS stimulated control wells.
In general terms: An ELISA detects its analyte on a solid surface through an enzyme-linked reagent.
With `CSc1cccc(Oc2ncc(F)cc2C(=O)N[C@H]2CC[C@@H](NC(=O)c3cc4ccccn4n3)CC2)c1` [Example 1, Syn-Pyrazolo[1,5-a]pyridine-2-carboxylic acid(4-{[5-fluoro-2-(3-methylsulfanyl-phenoxy) -pyridine-3-carbonyl]-amino}-cyclohexyl)-amide], the IC50 is 0.1 nM.

`CSc1cccc(Oc2ncc(F)cc2C(=O)N[C@H]2CC[C@@H](NC(=O)c3cccn4ccnc34)CC2)c1` [Example 6, Syn-Imidazo[1,2-a]pyridine-8-carboxylic acid(4-{[5-fluoro-2-(3-methylsulfanyl-phenoxy) -pyridine-3-carbonyl]-amino}-cyclohexyl)-amide] came in with a half-maximal inhibitory concentration (IC50) of 0.02 nM.

On to `CSc1cccc(Oc2ncc(F)cc2C(=O)N[C@H]2CC[C@@H](NC(=O)c3cccc4nn[nH]c34)CC2)c1` [Example 7, Syn-3H-Benzotriazole-4-carboxylic acid(4-{[5-fluoro-2-(3-methylsulfanyl-Phenoxy) -pyridine-3-carbonyl]-amino}-cyclohexyl)-amide], for which the half-maximal inhibitory concentration (IC50) is 0.4 nM.

Regarding `CSc1cccc(Oc2ncc(F)cc2C(=O)N[C@H]2CC[C@@H](NC(=O)c3cccc4cccnc34)CC2)c1` [Example 8, Syn-Quinoline-8-carboxylic acid(4-{[5-fluoro-2-(3-methylsulfanyl-phenoxy) -pyridine-3-carbonyl]-amino}-cyclohexyl)-amide], the concentration for half-maximal inhibition (IC50) turned out to be 0.25 nM.

Regarding `CSc1cccc(Oc2ncc(F)cc2C(=O)N[C@H]2CC[C@@H](NC(=O)c3cccc4cc(O)cnc34)CC2)c1` [Example 9, Syn-3-Hydroxy-quinoline-8-carboxylic acid(4-{[5-fluoro-2-(3-methylsulfanyl-phenoxy) -pyridine-3-carbonyl]-amino}-cyclohexyl)-amide], the half-inhibitory concentration (IC50) came out at 0.15 nM.

Consider `CSc1cccc(Oc2ncc(F)cc2C(=O)N[C@H]2CC[C@@H](NC(=O)c3nn(CCO)c4ccccc34)CC2)c1` [Example 10, Syn-1-(2-Hydroxy-ethyl)-1H-indazole-3-carboxylic acid(4-{[5-fluoro-2-(3-methylsulfanyl-phenoxy)-pyridine-3-carbonyl]-amino}-cyclohexyl)-amide], for which the IC50 is 0.3 nM.

Consider “Syn-1-Isopropyl-1H-benzoimidazole-4-carboxylic acid(4-{[5-fluoro-2-(3-methylsulfanyl-phenoxy)-pyridine-3-carbonyl]-amino}-cyclohexyl)-amide [Example 2]”, for which the concentration for half-maximal inhibition (IC50) is 1 nM.

Molecule “Syn-1H-Indazole-3-carboxylic acid(4-{[5-fluoro-2-(3-methylsulfanyl-phenoxy) -pyridine-3-carbonyl]-amino}-cyclohexyl)-amide [Example 4]” yielded a 50% inhibitory concentration (IC50) of 2 nM.

“Syn-2-Methyl-3H-benzoimidazole-4-carboxylic acid(4-{[5-fluoro-2-(3-methylsulfanyl-phenoxy)-pyridine-3-carbonyl]-amino}-cyclohexyl)-amide [Example 5]”: the IC50 was 0.04 nM.

Consider “Syn-Imidazo[1,2-a]pyridine-2-carboxylic acid(4-{[5-fluoro-2-(3-methylsulfanyl -phenoxy)-pyridine-3-carbonyl]-amino}-cyclohexyl)-amide [Example 3]”, for which the IC50 stood at 0.1 nM.

The term IC50 denotes the concentration needed to halve the response being measured. Read a low IC50 as inhibition by little substance.
